The nature of this data set: In vitro liver microsomal stability assay. It is filed as in vitro ADME. The settings on record: 1 mg per mL liver microsome protein, NADPH-generating system, 5 microgram per mL test compound, about 37° C., 0-60 minutes, LC/MS/MS. The procedure: Liver microsomal stability assays were conducted at 1 mg per mL liver microsome protein with an NADPH-generating system in 2% NaHCO3 (2.2 mM NADPH, 25.6 mM glucose 6-phosphate, 6 units per mL glucose 6-phosphate dehydrogenase and 3.3 mM MgCl2). Test compounds were prepared as solutions in 20% acetonitrile-water and added to the assay mixture (final assay concentration 5 microgram per mL) and incubated at about 37° C. Final concentration of acetonitrile in the assay should be <1%. Aliquots (50 μL) were taken out at times 0, 15, 30, 45, and 60 minutes, and diluted with ice cold acetonitrile (200 μL) to stop the reactions. Samples were centrifuged at 12,000 RPM for about 10 minutes to precipitate proteins. Supernatants were transferred to microcentrifuge tubes and stored for LC/MS/MS analysis of the degradation half-life of the test compounds.
For orientation: Liver microsomes are vesicles of endoplasmic reticulum, rich in cytochrome P450 enzymes.

Molecules are shown by their SMILES.

On to `Cl.[2H]C([2H])([2H])C(NC(C)C(=O)c1cccc(Cl)c1)(C([2H])([2H])[2H])C([2H])([2H])[2H]` (stereo not shown) [Example 2, 2-(tent-d9-Butylamino)-1-(3-chlorophenyl)propan-1-one Hydrochloride], for which the “degradation half-life as compared to the non-isotopically enriched compound” value is given as “improved degradation half-life”.

These data come from patent US20100075950A1, “PHENY[…] DOPAMINE RECEPTOR” (AUSPEX PHARMACEUTICALS, INC., priority 2008, published 2010).
